Values of other authors in patent US20060240399A1, “Long-term shelf preservation of cells and multicellular specimens by vitrification” (priority 1999, published 2006).

Tested on: Drosophila melanogaster embryos
Details: co-solute added to vitrification solution

| SMILES | effect on ethylene glycol permeation inside embryos |
| --- | --- |
| N[C@@H](CCC(=O)O)C(=O)O [glutamic acid] | significantly diminished |
| NCC(=O)O [glycine] | significantly diminished |
| OC[C@@H](O)[C@@H](O)[C@H](O)[C@@H](O)CO [sorbitol] | significantly diminished |
